This note sets out measurements from the METLIN SMRT retention time set (Domingo-Almenara et al. 2019).

The nature of the data set: gradient 5% acetonitrile 3 min, to 50% in 2 min, to 85% in 15 min, held 3 min, 100 µL/min. The settings on record: column: Zorbax Extend-C18 2.1 x 50 mm; eluents: water / acetonitrile, 0.1% formic acid. The method in brief: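 The mobile phases were water and acetonitrile, each with 0.1% formic acid, pumped at 100 μL/min through a Zorbax Extend-C18 column (2.1 × 50 mm, 1.8 μm). Pure standards were injected as mixtures of ~100 molecules and detected by a quadrupole time-of-flight mass spectrometer in positive and negative ionization mode. Retention time came from computationally picked adduct peaks, each inspected by hand.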
The compound `Cc1ccc(NC(=O)Cn2c(C)nc3onc(C)c3c2=O)cc1F` returned an RP-LC retention time of 735 s.
The result for `Cc1nc(-c2csc(S(=O)(=O)N3CCN(c4ccccc4Cl)CC3)c2)sc1C` reads 1320 s.
Take `CC(=O)N1CCc2cc(N3CC(C(=O)NCc4cccc(F)c4)CC3=O)ccc21` (stereo not drawn): the RP-LC retention time is 741 s.
In the case of `CC(=O)Nc1onc(C)c1-c1ccc(C)c(S(=O)(=O)N2CCN(c3ncccn3)CC2)c1`, the RP-LC retention time was 763 s.
In turn, `COc1ccc(NC(=O)COc2nc(C)nc3ccccc23)c(OC)c1` had an RP-LC retention time of 708 s.
`CN(C)S(=O)(=O)c1ccc(-c2nnc(C(=O)NC3CCCCC3)o2)cc1` registered an RP-LC retention time of 886 s.
The compound `Cc1ccn2c(Nc3ccccc3C)c(-c3ccc(N4CCOCC4)cc3)nc2c1` gave an RP-LC retention time of 746 s.
Compound `CC1=C(C(=O)Nc2ccccc2C(=O)NCCN2CCN(C)CC2)SCCO1` came in with an RP-LC retention time of 599 s.
`COc1cc(-c2noc(Cc3nnc(-c4cc(F)cc(F)c4)o3)n2)cc(OC)c1OC` had an RP-LC retention time of 968 s.
The result for `O=C(Cn1c(=O)n(C2CC2)c(=O)c2nscc21)NCCC1=CCCCC1` reads 776 s; that for `Cc1cc(Cl)ccc1NC(=O)C1CCN(c2c(C(=O)N3CCOCC3)cnc3snc(C)c23)CC1`, 847 s; that for `CCOC(=O)c1c(C)[nH]c(C(=O)N2CCCC(C(=O)NCCCN3CCOCC3)C2)c1C` (stereo not drawn), 593 s.
For `Cc1ccn2c(NC(=O)c3ccccc3)c(-c3ccccc3)nc2c1` the value was 646 s; for `COC(=O)c1cn(CC(=O)Nc2cc(OC)ccc2OC)c2ccccc12`, 946 s; for `Cc1csc(-c2cc(S(=O)(=O)N3CCCCC3)cn2CC(=O)N2CCCCC2)n1`, 1020 s.
The result for `COCCN1C(=O)c2ccccc2C(C(=O)NCc2ccccc2)C1c1cccs1` (stereo not drawn) reads 842 s; that for `Cc1nc(-c2ccccc2)cc2nn(CC(=O)NC3CCCCC3)c(=O)n12`, 880 s; that for `CCOC(=O)c1cnc(N2CCc3ccccc32)[nH]c1=O`, 632 s.
`O=C(CCc1ccc2nc(-c3ccccc3)[nH]c2c1)NC1CCCC1` displayed an RP-LC retention time of 618 s.
For `CCOC(=O)c1ccc(NC(=O)N2CCc3nc[nH]c3C2)cc1` the value was 609 s.
With `CCSc1nnc(NC(=O)Cn2cnc(C(C)C)cc2=O)s1`, the RP-LC retention time stood at 664 s.
For `O=C(CN1C(=O)CCC1=O)Nc1nnc(-c2ccc(Cl)s2)o1` the value was 642 s.
For `CCOc1ccc(-c2cn3ccn(-c4ccc(Br)cc4)c(=O)c3n2)cc1`, the RP-LC retention time turned out to be 931 s.
In the case of `CCn1cnnc1CC1CCN(S(=O)(=O)Cc2ccccc2F)C1` (stereo not drawn), the RP-LC retention time came out at 658 s.
Compound `CC(C)N1CCCn2cc(S(=O)(=O)NC3CCCCCC3)cc2C1=O` had an RP-LC retention time of 817 s.
Take `O=C(CN1CCC2(CC1)N=C(c1ccc(Cl)cc1)C(=O)N2)NCc1ccc2c(c1)OCO2`: the RP-LC retention time turned out to be 680 s.
As for `O=C(c1nnc(-c2ccc(S(=O)(=O)N3CCCCC3)cc2)o1)N1CCN(C2CCCCC2)CC1`, the RP-LC retention time was 700 s.
In the case of `Cc1ccc(-c2csc(NC(=O)COc3cc(C)cc(C)c3)n2)cc1`, the RP-LC retention time turned out to be 1270 s.
`COC(=O)c1cnc2nc(C)ccc2c1Nc1cc(OC)ccc1OC`: the RP-LC retention time turned out to be 667 s.
The result for `COc1ccccc1-c1noc(C2CCCN2C(=O)NCc2ccco2)n1` (stereo not drawn) reads 761 s.
`Cc1cc(C)n2c(Nc3cccc(C(F)(F)F)c3)c(-c3cc(Br)ccc3O)nc2n1` came in with an RP-LC retention time of 1060 s.
The compound `Cc1ccc(NC(=O)N2CCC(C(C)C(=O)Nc3ccc(C)cc3Cl)CC2)cc1` (stereo not drawn) came in with an RP-LC retention time of 950 s.
`O=C(Nc1c(C(=O)N2CCN(c3ccccn3)CC2)[nH]c2ccccc12)c1ccc(Cl)cc1` gave an RP-LC retention time of 678 s.
